Measured values: PMC5218480 (PLoS ONE, 2017)

System: MV-4-11 cells
Assay: Gene expression microarray analysis (Affymetrix PrimeView) and GSEA
Type: cell-based, human
Design: RFU PODN (11730768_x_at) / Fold change /veh PODN (11730768_x_at) / RFU LINC00158 (11744669_a_at) / Fold change /veh LINC00158 (11744669_a_at) / RFU DUSP10 (11751237_a_at) / Fold change /veh DUSP10 (11751237_a_at) / RFU ID3 (11757404_x_at) / Fold change /veh ID3 (11757404_x_at) / RFU PLEKHG5 (11737974_s_at) / Fold change /veh PLEKHG5 (11737974_s_at) / RFU LRRC4B (11730491_at) / Fold change /veh LRRC4B (11730491_at) / RFU GIMAP4 (11747438_a_at) / Fold change /veh GIMAP4 (11747438_a_at) / RFU KRT8 (11758183_x_at) / Fold change /veh KRT8 (11758183_x_at) / RFU CNN1 (11734310_a_at) / Fold change /veh CNN1 (11734310_a_at) / RFU VPS37D (11726825_at) / Fold change /veh VPS37D (11726825_at) / RFU C10orf10 (11716522_x_at) / Fold change /veh C10orf10 (11716522_x_at) / RFU KIR2DL2 /// KIR2DL4 /// KIR2DL5A /// KIR2DL5B /// KIR2DS1 /// KIR2DS2 /// KIR2DS3 /// KIR2DS4 /// KIR3DL3 /// KIR3DL3 /// KIR3DS1 (11738374_at) / Fold change /veh KIR2DL2 /// KIR2DL4 /// KIR2DL5A /// KIR2DL5B /// KIR2DS1 /// KIR2DS2 /// KIR2DS3 /// KIR2DS4 /// KIR3DL3 /// KIR3DL3 /// KIR3DS1 (11738374_at) / RFU C1QL1 (11718748_at) / Fold change /veh C1QL1 (11718748_at) / RFU TMPRSS4 (11747572_a_at) / Fold change /veh TMPRSS4 (11747572_a_at) / RFU HAMP (11756126_x_at) / Fold change /veh HAMP (11756126_x_at) / RFU RNFT2 (11725882_a_at) / Fold change /veh RNFT2 (11725882_a_at) / RFU NR4A2 (11747474_a_at) / Fold change /veh NR4A2 (11747474_a_at) / RFU ABCC12 (11746883_a_at) / Fold change /veh ABCC12 (11746883_a_at) / RFU TMEM136 (11760407_x_at) / Fold change /veh TMEM136 (11760407_x_at) / RFU CLDN22 /// WWC2 (11732394_at) / Fold change /veh CLDN22 /// WWC2 (11732394_at) / RFU HLA-DPB1 (11760878_x_at) / Fold change /veh HLA-DPB1 (11760878_x_at) / RFU SPINT1 (11716480_a_at) / Fold change /veh SPINT1 (11716480_a_at) / RFU GAP43 (11754022_s_at) / Fold change /veh GAP43 (11754022_s_at) / RFU A4GNT (11735810_at) / Fold change /veh A4GNT (11735810_at) / RFU PRB3 (11715151_x_at) / Fold change /veh PRB3 (11715151_x_at) / RFU TUBB4B (11761932_at) / Fold change /veh TUBB4B (11761932_at) / RFU CAPN14 (11732068_a_at) / Fold change /veh CAPN14 (11732068_a_at) / RFU TMCC2 (11721928_a_at) / Fold change /veh TMCC2 (11721928_a_at) / RFU IRGQ (11745062_a_at) / Fold change /veh IRGQ (11745062_a_at) / RFU FAM174B (11720279_a_at) / Fold change /veh FAM174B (11720279_a_at) / RFU TMPRSS4 (11748680_a_at) / Fold change /veh TMPRSS4 (11748680_a_at) / RFU FAM212B (11763350_a_at) / Fold change /veh FAM212B (11763350_a_at) / RFU PLEKHG5 (11743358_a_at) / Fold change /veh PLEKHG5 (11743358_a_at) / RFU ZSCAN30 (11745921_a_at) / Fold change /veh ZSCAN30 (11745921_a_at) / RFU CMKLR1 (11741424_a_at) / Fold change /veh CMKLR1 (11741424_a_at) / RFU LOC101060620 /// MAPK8IP1 (11723275_at) / Fold change /veh LOC101060620 /// MAPK8IP1 (11723275_at) / RFU SPTSSB (11747773_x_at) / Fold change /veh SPTSSB (11747773_x_at) / RFU PRSS12 (11739890_at) / Fold change /veh PRSS12 (11739890_at) / RFU BIN1 (11741810_x_at) / Fold change /veh BIN1 (11741810_x_at) / RFU WNT11 (11732464_a_at) / Fold change /veh WNT11 (11732464_a_at) / RFU C10orf10 (11716521_a_at) / Fold change /veh C10orf10 (11716521_a_at) / RFU C5orf56 (11738089_at) / Fold change /veh C5orf56 (11738089_at) / RFU CYB561 (11721691_x_at) / Fold change /veh CYB561 (11721691_x_at) / RFU ANKRD19P (11752326_a_at) / Fold change /veh ANKRD19P (11752326_a_at) / RFU OR2T12 /// OR2T33 /// OR2T8 (11738714_s_at) / Fold change /veh OR2T12 /// OR2T33 /// OR2T8 (11738714_s_at) / RFU VCAN (11748164_a_at) / Fold change /veh VCAN (11748164_a_at) / RFU JSRP1 (11732532_at) / Fold change /veh JSRP1 (11732532_at) / RFU KRTAP10-11 (11738290_x_at) / Fold change /veh KRTAP10-11 (11738290_x_at) / RFU MYO3A (11730013_a_at) / Fold change /veh MYO3A (11730013_a_at) / RFU EBF3 (11725865_a_at) / Fold change /veh EBF3 (11725865_a_at) / RFU CAMK2N1 (11719241_x_at) / Fold change /veh CAMK2N1 (11719241_x_at) / RFU C5orf56 (11738088_a_at) / Fold change /veh C5orf56 (11738088_a_at) / RFU OLFML3 (11715873_a_at) / Fold change /veh OLFML3 (11715873_a_at) / RFU LOC100653217 /// NTM (11731650_a_at) / Fold change /veh LOC100653217 /// NTM (11731650_a_at) / RFU MAPK11 (11762145_a_at) / Fold change /veh MAPK11 (11762145_a_at) / RFU FIZ1 (11724087_x_at) / Fold change /veh FIZ1 (11724087_x_at) / RFU OASL (11726364_x_at) / Fold change /veh OASL (11726364_x_at) / RFU SOX15 (11748057_x_at) / Fold change /veh SOX15 (11748057_x_at) / RFU CD79A (11719716_a_at) / Fold change /veh CD79A (11719716_a_at) / RFU HIST1H1D (11736915_at) / Fold change /veh HIST1H1D (11736915_at) / RFU CASKIN2 (11723855_a_at) / Fold change /veh CASKIN2 (11723855_a_at) / RFU LOC730098 (11760151_x_at) / Fold change /veh LOC730098 (11760151_x_at) / RFU OR4N2 (11742367_at) / Fold change /veh OR4N2 (11742367_at) / RFU PRRT2 (11749266_a_at) / Fold change /veh PRRT2 (11749266_a_at) / RFU SNX32 (11753110_a_at) / Fold change /veh SNX32 (11753110_a_at) / RFU CDHR5 (11726645_a_at) / Fold change /veh CDHR5 (11726645_a_at) / RFU RCAN1 (11760418_a_at) / Fold change /veh RCAN1 (11760418_a_at) / RFU FAM167A (11723789_a_at) / Fold change /veh FAM167A (11723789_a_at) / RFU FAM26E (11764081_at) / Fold change /veh FAM26E (11764081_at) / RFU ISYNA1 (11749810_s_at) / Fold change /veh ISYNA1 (11749810_s_at) / RFU ACY1 (11761880_at) / Fold change /veh ACY1 (11761880_at) / RFU 11764098_at / Fold change /veh 11764098_at / RFU SAMD14 (11745864_x_at) / Fold change /veh SAMD14 (11745864_x_at) / RFU NPB (11741838_a_at) / Fold change /veh NPB (11741838_a_at) / RFU TMPRSS6 (11731388_a_at) / Fold change /veh TMPRSS6 (11731388_a_at) / RFU KRTAP10-2 (11738614_at) / Fold change /veh KRTAP10-2 (11738614_at) / RFU ARHGAP8 /// PRR5-ARHGAP8 (11727945_x_at) / Fold change /veh ARHGAP8 /// PRR5-ARHGAP8 (11727945_x_at) / RFU KRTAP5-7 /// NADSYN1 (11734609_at) / Fold change /veh KRTAP5-7 /// NADSYN1 (11734609_at) / RFU RASL12 (11751679_a_at) / Fold change /veh RASL12 (11751679_a_at) / RFU CDKN2B (11736163_a_at) / Fold change /veh CDKN2B (11736163_a_at) / RFU PRF1 (11729649_at) / Fold change /veh PRF1 (11729649_at) / RFU, ZNF638 /// ZNF638-IT1 / Fold change vs veh, ZNF638 /// ZNF638-IT1 / RFU, PANK3 / Fold change vs veh, PANK3 / RFU, SH3YL1 / Fold change vs veh, SH3YL1 / RFU, ZEB2 / Fold change vs veh, ZEB2 / RFU, NRIP1 / Fold change vs veh, NRIP1 / RFU, PTTG1IP / Fold change vs veh, PTTG1IP / RFU, CAPN2 / Fold change vs veh, CAPN2 / RFU, MED14 / Fold change vs veh, MED14 / RFU, SNORA58 / Fold change vs veh, SNORA58 / RFU, C1orf63 / Fold change vs veh, C1orf63 / RFU, LRRFIP1 / Fold change vs veh, LRRFIP1 / RFU, NDUFAF7 / Fold change vs veh, NDUFAF7 / RFU, SLC12A2 / Fold change vs veh, SLC12A2 / RFU, IBTK / Fold change vs veh, IBTK / RFU, ESF1 / Fold change vs veh, ESF1 / Fold change vs veh, TMEM50B / RFU, TAOK1 / Fold change vs veh, TAOK1 / RFU, ACBD3 / Fold change vs veh, ACBD3 / RFU, TMA16 / Fold change vs veh, TMA16 / RFU, RWDD3 / Fold change vs veh, RWDD3 / RFU, BCAT1 / Fold change vs veh, BCAT1 / RFU, EDEM3 / Fold change vs veh, EDEM3 / RFU, TMEM33 / Fold change vs veh, TMEM33 / RFU, WDR75 / Fold change vs veh, WDR75 / RFU, AHCTF1 / Fold change vs veh, AHCTF1 / RFU, TFRC / Fold change vs veh, TFRC / RFU, ZDHHC17 / Fold change vs veh, ZDHHC17 / RFU, NOM1 / Fold change vs veh, NOM1 / RFU, ARL8B / Fold change vs veh, ARL8B / RFU, ZBTB11 / Fold change vs veh, ZBTB11 / RFU, TAMM41 / Fold change vs veh, TAMM41 / RFU, KIAA1704 /// LOC100996395 / Fold change vs veh, KIAA1704 /// LOC100996395 / RFU, ING1 / Fold change vs veh, ING1 / RFU, TRMT61B / Fold change vs veh, TRMT61B / RFU, FUBP3 / Fold change vs veh, FUBP3 / RFU, TP53 / Fold change vs veh, TP53 / RFU, TNKS2 / Fold change vs veh, TNKS2 / RFU, ZFP14 / Fold change vs veh, ZFP14 / RFU, ACTR2 / Fold change vs veh, ACTR2 / RFU, PPP3R1 / Fold change vs veh, PPP3R1 / RFU, PIK3R1 / Fold change vs veh, PIK3R1 / RFU, HNRNPA1 / Fold change vs veh, HNRNPA1 / RFU, RNF170 / Fold change vs veh, RNF170 / RFU, ZNF28 / Fold change vs veh, ZNF28 / RFU, RNGTT / Fold change vs veh, RNGTT / RFU, OGT / Fold change vs veh, OGT / RFU, BRD1 / Fold change vs veh, BRD1 / RFU, MARS / Fold change vs veh, MARS / RFU, ZNF655 / Fold change vs veh, ZNF655 / RFU, FAHD1 / Fold change vs veh, FAHD1 / RFU, BDP1 / Fold change vs veh, BDP1 / RFU, LRRCC1 / Fold change vs veh, LRRCC1 / RFU, ARID1A / Fold change vs veh, ARID1A / RFU, ZNF146 / Fold change vs veh, ZNF146 / RFU, ZNF330 / Fold change vs veh, ZNF330 / RFU, GPN3 / Fold change vs veh, GPN3 / RFU, C9orf123 / Fold change vs veh, C9orf123 / RFU, N4BP2L2 / Fold change vs veh, N4BP2L2 / RFU, ARFIP1 / Fold change vs veh, ARFIP1 / RFU, FAM179B / Fold change vs veh, FAM179B / RFU, BCL10 / Fold change vs veh, BCL10 / RFU, UHRF1BP1L / Fold change vs veh, UHRF1BP1L / RFU, BET1 / Fold change vs veh, BET1 / RFU, CNOT2 / Fold change vs veh, CNOT2 / RFU, ZNF268 / Fold change vs veh, ZNF268 / Fold change vs veh, ZNF507 / RFU, DGCR2 / Fold change vs veh, DGCR2 / RFU, WDSUB1 / Fold change vs veh, WDSUB1 / Fold change vs veh, HSP90B1 /// MIR3652 / RFU, ADSS / Fold change vs veh, ADSS / RFU, GK / Fold change vs veh, GK / RFU, ZNF148 / Fold change vs veh, ZNF148 / RFU, TAF9 / Fold change vs veh, TAF9 / RFU, SLC1A5 / Fold change vs veh, SLC1A5 / RFU, SLMO2 / Fold change vs veh, SLMO2 / RFU, ABCC4 / Fold change vs veh, ABCC4 / RFU, LOC101060439 /// RAP1B / Fold change vs veh, LOC101060439 /// RAP1B / RFU, RFX7 / Fold change vs veh, RFX7 / RFU, GTPBP10 / Fold change vs veh, GTPBP10 / RFU, CNEP1R1 / Fold change vs veh, CNEP1R1 / RFU, BIVM-ERCC5 /// ERCC5 / Fold change vs veh, BIVM-ERCC5 /// ERCC5 / RFU, ILF3 / Fold change vs veh, ILF3 / RFU 11762660_at / Fold change /veh 11762660_at / RFU VCAN (11757783_s_at) / Fold change /veh VCAN (11757783_s_at) / RFU DDX43 (11728927_at) / Fold change /veh DDX43 (11728927_at) / RFU KRT8 (11758188_x_at) / Fold change /veh KRT8 (11758188_x_at) / RFU NKD1 (11759106_at) / Fold change /veh NKD1 (11759106_at) / RFU SRD5A1 (11742802_a_at) / Fold change /veh SRD5A1 (11742802_a_at) / RFU TPSAB1 /// TPSB2 (11721975_s_at) / Fold change /veh TPSAB1 /// TPSB2 (11721975_s_at) / RFU GSTM3 (11746129_a_at) / Fold change /veh GSTM3 (11746129_a_at) / RFU IL23R (11737362_x_at) / Fold change /veh IL23R (11737362_x_at) / RFU TMEM51 (11727254_a_at) / Fold change /veh TMEM51 (11727254_a_at) / RFU PIWIL2 (11732686_x_at) / Fold change /veh PIWIL2 (11732686_x_at) / RFU ORM1 (11744905_x_at) / Fold change /veh ORM1 (11744905_x_at) / RFU CCDC152 (11743942_at) / Fold change /veh CCDC152 (11743942_at) / RFU ECM1 (11717891_a_at) / Fold change /veh ECM1 (11717891_a_at) / RFU IL23R (11748794_a_at) / Fold change /veh IL23R (11748794_a_at) / RFU TNFAIP8L3 (11732012_x_at) / Fold change /veh TNFAIP8L3 (11732012_x_at) / RFU MBOAT4 (11741988_at) / Fold change /veh MBOAT4 (11741988_at) / RFU 11764193_at / Fold change /veh 11764193_at / RFU TMEM53 (11763286_at) / Fold change /veh TMEM53 (11763286_at) / RFU MAGEB2 (11727129_at) / Fold change /veh MAGEB2 (11727129_at) / RFU TMEM200A (11744735_a_at) / Fold change /veh TMEM200A (11744735_a_at) / RFU CCDC152 (11751479_a_at) / Fold change /veh CCDC152 (11751479_a_at) / RFU FAM211A (11726209_a_at) / Fold change /veh FAM211A (11726209_a_at) / RFU RGS16 (11746705_a_at) / Fold change /veh RGS16 (11746705_a_at) / RFU VCAN (11755009_s_at) / Fold change /veh VCAN (11755009_s_at) / RFU RHOB (11743442_s_at) / Fold change /veh RHOB (11743442_s_at) / RFU RGS16 (11720943_a_at) / Fold change /veh RGS16 (11720943_a_at) / RFU RGS16 (11720944_at) / Fold change /veh RGS16 (11720944_at) / RFU, VPS4B / Fold change vs veh, VPS4B / RFU, CREB1 / Fold change vs veh, CREB1 / RFU, DNAJC13 / Fold change vs veh, DNAJC13 / RFU, GNAQ / Fold change vs veh, GNAQ / RFU, CDK5R1 / Fold change vs veh, CDK5R1 / RFU, ZRANB3 / Fold change vs veh, ZRANB3 / RFU, CUL4A / Fold change vs veh, CUL4A / RFU, CCNY / Fold change vs veh, CCNY / RFU, UFL1 / Fold change vs veh, UFL1 / RFU, COG3 / Fold change vs veh, COG3 / RFU, DIAPH2 / Fold change vs veh, DIAPH2 / RFU, SKA2 / Fold change vs veh, SKA2 / RFU, AFF3 / Fold change vs veh, AFF3 / RFU, LMF1 / Fold change vs veh, LMF1 / RFU, IPO11 / Fold change vs veh, IPO11 / RFU, DFFB / Fold change vs veh, DFFB / RFU, FOXP1 / Fold change vs veh, FOXP1 / RFU, CARD8 / Fold change vs veh, CARD8 / RFU, STRN3 / Fold change vs veh, STRN3 / RFU, ADK / Fold change vs veh, ADK / RFU, RASSF2 / Fold change vs veh, RASSF2 / RFU, WIPF1 / Fold change vs veh, WIPF1 / RFU, LARP1B / Fold change vs veh, LARP1B / RFU, RASA1 / Fold change vs veh, RASA1 / RFU, RB1 / Fold change vs veh, RB1 / RFU, PPFIA1 / Fold change vs veh, PPFIA1 / RFU, MAT2A / Fold change vs veh, MAT2A / RFU, CCT5 / Fold change vs veh, CCT5 / RFU, WDR92 / Fold change vs veh, WDR92 / RFU, CUX1 / Fold change vs veh, CUX1 / RFU, TTC7A / Fold change vs veh, TTC7A / RFU, TMEM135 / Fold change vs veh, TMEM135 / RFU, DEPTOR / Fold change vs veh, DEPTOR / RFU, CPM / Fold change vs veh, CPM / RFU, DNAJB6 / Fold change vs veh, DNAJB6 / RFU, CACNA2D3 / Fold change vs veh, CACNA2D3 / RFU, DTX4 / Fold change vs veh, DTX4 / RFU, TFCP2 / Fold change vs veh, TFCP2 / RFU, GMCL1 /// GMCL1P1 / Fold change vs veh, GMCL1 /// GMCL1P1 / RFU, AEBP2 / Fold change vs veh, AEBP2 / RFU, SNHG1 /// SNORD22 /// SNORD25 /// SNORD26 /// SNORD27 /// SNORD28 /// SNORD29 /// SNORD31 / Fold change vs veh, SNHG1 /// SNORD22 /// SNORD25 /// SNORD26 /// SNORD27 /// SNORD28 /// SNORD29 /// SNORD31 / Fold change (Aza/veh), C12orf56 (ProbeSet 11735607_a_at) / Fold change (ACY-1035/veh), C12orf56 (ProbeSet 11735607_a_at) / Fold change (Aza/veh), FGFR1OP (ProbeSet 11751329_s_at) / Fold change (ACY-1035/veh), FGFR1OP (ProbeSet 11751329_s_at) / Fold change (Aza/veh), VPS36 (ProbeSet 11739960_a_at) / Fold change (ACY-1035/veh), VPS36 (ProbeSet 11739960_a_at) / RFU SYPL1 (11715823_x_at) / Fold change /veh SYPL1 (11715823_x_at) / RFU IGFBP7 (11715501_s_at) / Fold change /veh IGFBP7 (11715501_s_at) / RFU REEP3 (11722064_at) / Fold change /veh REEP3 (11722064_at) / RFU IGLL1 (11728026_x_at) / Fold change /veh IGLL1 (11728026_x_at): dose or concentration left out as unconfirmed
Details: ProbeSet 11718701_a_at; LIST B

Compound: Nc1ncn([C@@H]2O[C@H](CO)[C@@H](O)[C@H]2O)c(=O)n1 [azacitidine]
- Fold change vs veh, ARFIP1: 1.05
